According to PMC7026418, “The kinase polypharmacology landscape of clinical PARP inhibitors” (Scientific Reports, 2020):
Where two headings read alike, the source gives them in different places.

Key:
Test in all cases: biochemical
Parameters in all cases: DiscoveRx KINOMEscan active site-directed competition binding; percent of control kinase bound to immobilised ligand
[1] = target: T1, CDC2L2 (Homo sapiens, UniProt Q9UQ88)
T1 construct: gene CDK11A
T1 sequence (Q9UQ88 1-783): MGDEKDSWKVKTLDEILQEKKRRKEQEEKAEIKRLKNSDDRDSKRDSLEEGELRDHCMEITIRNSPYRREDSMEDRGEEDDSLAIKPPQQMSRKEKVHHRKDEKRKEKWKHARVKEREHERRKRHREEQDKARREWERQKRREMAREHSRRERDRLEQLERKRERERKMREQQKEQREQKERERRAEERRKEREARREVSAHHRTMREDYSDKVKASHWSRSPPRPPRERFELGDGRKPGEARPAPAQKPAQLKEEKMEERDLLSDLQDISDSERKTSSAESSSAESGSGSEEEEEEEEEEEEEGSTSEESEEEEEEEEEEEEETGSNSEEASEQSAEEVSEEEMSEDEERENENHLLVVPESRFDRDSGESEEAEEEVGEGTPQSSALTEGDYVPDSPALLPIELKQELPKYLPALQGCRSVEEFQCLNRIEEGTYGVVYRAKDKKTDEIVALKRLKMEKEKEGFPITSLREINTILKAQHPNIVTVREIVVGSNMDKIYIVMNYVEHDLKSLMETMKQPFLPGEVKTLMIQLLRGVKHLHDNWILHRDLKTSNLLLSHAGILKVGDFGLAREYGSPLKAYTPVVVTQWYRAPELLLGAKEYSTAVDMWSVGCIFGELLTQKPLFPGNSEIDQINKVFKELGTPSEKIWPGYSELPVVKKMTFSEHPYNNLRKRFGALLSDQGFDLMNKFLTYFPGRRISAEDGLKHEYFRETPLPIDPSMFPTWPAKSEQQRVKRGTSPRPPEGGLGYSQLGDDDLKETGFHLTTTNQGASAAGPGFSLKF

[2] = target: T2, PCTK2 (Homo sapiens, UniProt Q00537)
T2 construct: gene CDK17
T2 sequence (Q00537 whole entry): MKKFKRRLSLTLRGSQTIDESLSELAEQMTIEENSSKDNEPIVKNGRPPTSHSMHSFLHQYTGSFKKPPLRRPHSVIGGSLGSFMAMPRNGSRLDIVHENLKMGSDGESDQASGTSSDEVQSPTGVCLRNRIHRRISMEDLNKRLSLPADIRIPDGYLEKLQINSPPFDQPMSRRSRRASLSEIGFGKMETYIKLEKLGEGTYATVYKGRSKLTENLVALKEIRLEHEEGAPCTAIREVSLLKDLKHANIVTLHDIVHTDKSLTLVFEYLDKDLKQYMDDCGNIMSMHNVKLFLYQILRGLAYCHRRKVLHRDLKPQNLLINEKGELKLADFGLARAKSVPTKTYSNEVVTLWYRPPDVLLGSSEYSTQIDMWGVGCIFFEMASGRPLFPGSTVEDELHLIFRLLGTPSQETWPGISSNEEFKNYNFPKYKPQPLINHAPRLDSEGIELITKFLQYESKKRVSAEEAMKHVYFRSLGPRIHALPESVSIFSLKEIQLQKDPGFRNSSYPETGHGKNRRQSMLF

[3] = target: T3, NEK2 (Homo sapiens, UniProt P51955)
T3 sequence (P51955 1-445): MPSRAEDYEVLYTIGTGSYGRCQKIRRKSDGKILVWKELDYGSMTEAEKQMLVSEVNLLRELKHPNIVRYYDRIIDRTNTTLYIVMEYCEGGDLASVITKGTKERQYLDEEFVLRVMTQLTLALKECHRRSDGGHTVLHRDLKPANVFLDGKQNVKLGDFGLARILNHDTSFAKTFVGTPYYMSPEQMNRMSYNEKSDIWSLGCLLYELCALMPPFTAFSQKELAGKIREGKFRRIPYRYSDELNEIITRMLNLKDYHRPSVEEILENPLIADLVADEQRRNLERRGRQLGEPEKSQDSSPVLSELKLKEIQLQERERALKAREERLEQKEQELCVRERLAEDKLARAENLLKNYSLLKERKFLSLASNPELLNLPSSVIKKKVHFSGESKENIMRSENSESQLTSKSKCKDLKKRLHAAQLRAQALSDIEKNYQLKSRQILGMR

[4] = target: TESK1 (Homo sapiens, UniProt Q15569)
Sequence of TESK1 (Q15569 whole entry): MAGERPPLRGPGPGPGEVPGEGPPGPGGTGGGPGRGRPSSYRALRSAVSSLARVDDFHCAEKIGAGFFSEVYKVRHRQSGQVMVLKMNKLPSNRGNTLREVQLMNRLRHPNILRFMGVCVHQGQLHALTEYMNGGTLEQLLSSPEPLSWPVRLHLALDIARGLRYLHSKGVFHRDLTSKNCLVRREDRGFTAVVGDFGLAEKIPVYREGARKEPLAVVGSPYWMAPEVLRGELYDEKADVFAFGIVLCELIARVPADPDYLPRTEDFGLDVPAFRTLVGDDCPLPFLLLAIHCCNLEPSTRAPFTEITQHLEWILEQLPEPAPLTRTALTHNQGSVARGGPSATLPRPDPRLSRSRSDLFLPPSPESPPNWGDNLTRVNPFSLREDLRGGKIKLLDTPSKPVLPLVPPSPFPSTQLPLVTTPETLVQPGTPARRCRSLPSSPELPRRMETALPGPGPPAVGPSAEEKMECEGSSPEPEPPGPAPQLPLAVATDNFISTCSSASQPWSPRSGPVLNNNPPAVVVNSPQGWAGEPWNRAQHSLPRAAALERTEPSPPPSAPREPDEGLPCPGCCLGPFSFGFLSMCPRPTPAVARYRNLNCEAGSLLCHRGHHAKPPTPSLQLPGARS

[5] = target: CSNK1D (Homo sapiens, UniProt P48730)
Sequence of CSNK1D (P48730 whole entry): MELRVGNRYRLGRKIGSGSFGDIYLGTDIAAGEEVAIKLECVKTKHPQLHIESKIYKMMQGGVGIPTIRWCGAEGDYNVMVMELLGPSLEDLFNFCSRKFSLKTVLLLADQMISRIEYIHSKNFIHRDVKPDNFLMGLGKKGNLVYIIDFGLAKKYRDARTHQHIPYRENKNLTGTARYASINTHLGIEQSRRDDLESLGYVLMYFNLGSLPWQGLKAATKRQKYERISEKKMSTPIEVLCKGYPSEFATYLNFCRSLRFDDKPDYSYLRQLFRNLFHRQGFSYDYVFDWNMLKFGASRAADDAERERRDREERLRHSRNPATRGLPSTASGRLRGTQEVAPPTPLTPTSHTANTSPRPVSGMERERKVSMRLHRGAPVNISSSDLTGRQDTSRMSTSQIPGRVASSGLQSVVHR

[6] = target: T4, ABL1(T315I)-phosphorylated (Homo sapiens, UniProt P00519, T315I)
T4 construct: phosphorylated

[7] = target: T5, CAMK4 (Homo sapiens, UniProt Q16566)
T5 sequence (Q16566 1-473): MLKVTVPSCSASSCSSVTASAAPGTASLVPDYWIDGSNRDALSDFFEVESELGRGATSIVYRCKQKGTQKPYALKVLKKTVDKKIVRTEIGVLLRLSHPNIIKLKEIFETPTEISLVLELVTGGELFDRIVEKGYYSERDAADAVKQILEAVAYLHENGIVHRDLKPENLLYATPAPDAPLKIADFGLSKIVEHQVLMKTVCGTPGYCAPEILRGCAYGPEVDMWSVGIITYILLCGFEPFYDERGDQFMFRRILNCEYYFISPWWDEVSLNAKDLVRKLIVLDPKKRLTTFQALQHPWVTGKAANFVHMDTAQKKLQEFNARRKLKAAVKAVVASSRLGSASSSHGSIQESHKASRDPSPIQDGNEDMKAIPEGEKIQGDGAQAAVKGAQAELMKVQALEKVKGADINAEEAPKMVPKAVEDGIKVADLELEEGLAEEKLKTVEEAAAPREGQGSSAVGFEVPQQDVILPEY

[8] = target: CAMK1 (Homo sapiens, UniProt Q14012)
Sequence of CAMK1 (Q14012 whole entry): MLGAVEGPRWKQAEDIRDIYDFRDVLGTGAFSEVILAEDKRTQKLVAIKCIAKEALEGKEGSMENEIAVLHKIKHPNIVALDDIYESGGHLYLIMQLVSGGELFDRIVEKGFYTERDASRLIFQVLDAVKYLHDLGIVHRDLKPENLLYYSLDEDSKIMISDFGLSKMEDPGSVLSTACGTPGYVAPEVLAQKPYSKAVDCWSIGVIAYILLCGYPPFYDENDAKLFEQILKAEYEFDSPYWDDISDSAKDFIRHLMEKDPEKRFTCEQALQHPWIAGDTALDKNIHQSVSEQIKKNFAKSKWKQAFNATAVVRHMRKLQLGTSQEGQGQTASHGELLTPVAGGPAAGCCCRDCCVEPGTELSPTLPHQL

[9] = target: PIK3CA(E542K) (Homo sapiens, UniProt P42336, E542K)
Sequence of PIK3CA(E542K) (P42336 whole entry E542K): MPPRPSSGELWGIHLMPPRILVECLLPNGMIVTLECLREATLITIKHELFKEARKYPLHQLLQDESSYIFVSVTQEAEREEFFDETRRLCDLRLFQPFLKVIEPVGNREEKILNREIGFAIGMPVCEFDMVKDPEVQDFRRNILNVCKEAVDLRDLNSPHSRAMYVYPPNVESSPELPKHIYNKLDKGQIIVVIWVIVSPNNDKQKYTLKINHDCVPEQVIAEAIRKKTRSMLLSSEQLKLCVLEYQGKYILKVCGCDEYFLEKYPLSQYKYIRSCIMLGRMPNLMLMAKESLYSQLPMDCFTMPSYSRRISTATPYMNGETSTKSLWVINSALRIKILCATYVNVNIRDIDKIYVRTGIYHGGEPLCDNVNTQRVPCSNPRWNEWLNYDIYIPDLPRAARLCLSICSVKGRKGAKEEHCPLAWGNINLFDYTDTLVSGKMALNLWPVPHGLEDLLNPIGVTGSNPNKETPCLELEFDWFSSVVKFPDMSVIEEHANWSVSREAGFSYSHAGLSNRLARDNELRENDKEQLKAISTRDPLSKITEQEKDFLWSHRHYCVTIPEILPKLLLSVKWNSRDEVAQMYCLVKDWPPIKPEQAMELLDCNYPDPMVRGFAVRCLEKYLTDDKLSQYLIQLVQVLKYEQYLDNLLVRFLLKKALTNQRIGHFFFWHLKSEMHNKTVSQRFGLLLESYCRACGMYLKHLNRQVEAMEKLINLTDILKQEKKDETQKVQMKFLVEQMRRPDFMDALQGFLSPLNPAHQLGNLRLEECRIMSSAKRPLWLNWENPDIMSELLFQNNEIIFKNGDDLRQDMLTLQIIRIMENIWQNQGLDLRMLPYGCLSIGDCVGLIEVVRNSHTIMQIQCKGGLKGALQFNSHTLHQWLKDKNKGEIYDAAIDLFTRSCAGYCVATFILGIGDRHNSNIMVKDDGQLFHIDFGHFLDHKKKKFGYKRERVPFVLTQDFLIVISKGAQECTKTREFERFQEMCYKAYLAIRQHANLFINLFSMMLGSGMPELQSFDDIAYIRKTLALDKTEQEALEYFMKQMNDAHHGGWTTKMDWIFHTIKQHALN

[10] = target: T6, NDR2 (Homo sapiens, UniProt Q9Y2H1)
T6 construct: gene STK38L
T6 sequence (Q9Y2H1 whole entry): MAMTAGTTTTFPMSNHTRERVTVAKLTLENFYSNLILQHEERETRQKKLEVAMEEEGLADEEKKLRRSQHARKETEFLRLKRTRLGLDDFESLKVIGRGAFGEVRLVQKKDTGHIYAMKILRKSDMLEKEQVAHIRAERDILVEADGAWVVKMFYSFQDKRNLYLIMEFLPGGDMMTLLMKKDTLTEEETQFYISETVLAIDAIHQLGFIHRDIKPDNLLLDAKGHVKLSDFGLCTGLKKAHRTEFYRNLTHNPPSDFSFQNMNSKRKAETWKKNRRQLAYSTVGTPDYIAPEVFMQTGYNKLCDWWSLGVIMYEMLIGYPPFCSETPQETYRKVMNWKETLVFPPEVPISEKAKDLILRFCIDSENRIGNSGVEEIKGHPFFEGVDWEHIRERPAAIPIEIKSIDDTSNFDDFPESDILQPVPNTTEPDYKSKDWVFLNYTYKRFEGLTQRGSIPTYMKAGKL

[11] = read-out: Talazoparib (BMN 673) / %Ctrl @ 10000nM
[12] = read-out: Olaparib / %Ctrl @ 10000nM
[13] = read-out: Niraparib (MK-4827) / %Ctrl @ 10000nM
[14] = read-out: Rucaparib / %Ctrl @ 10000nM, binding competition, % of control

## Cn1ncnc1[C@H]1c2n[nH]c(=O)c3cc(F)cc(c23)N[C@@H]1c1ccc(F)cc1 [Talazoparib]
[1]; [11]
  percent of control binding at 10 µM: 100%
[2]; [11]
  percent of control binding at 10 µM: 94%
[3]; [11]
  percent of control binding at 10 µM: 100%
[4]; [11]
  percent of control binding at 10 µM: 99%
[5]; [11]
  percent of control binding at 10 µM: 100%
[6]; [11]
  percent of control binding at 10 µM: 100%
[7]; [11]
  percent of control binding at 10 µM: 83%
[8]; [11]
  percent of control binding at 10 µM: 95%
[9]; [11]
  percent of control binding at 10 µM: 100%
[10]; [11]
  percent of control binding at 10 µM: 83%

## O=C(c1cc(Cc2n[nH]c(=O)c3ccccc23)ccc1F)N1CCN(C(=O)C2CC2)CC1 [Olaparib]
[1]; [12]
  percent of control binding at 10 µM: 100%
[2]; [12]
  percent of control binding at 10 µM: 100%
[3]; [12]
  percent of control binding at 10 µM: 100%
[4]; [12]
  percent of control binding at 10 µM: 90%
[5]; [12]
  percent of control binding at 10 µM: 96%
[6]; [12]
  percent of control binding at 10 µM: 87%
[7]; [12]
  percent of control binding at 10 µM: 93%
[8]; [12]
  percent of control binding at 10 µM: 100%
[9]; [12]
  percent of control binding at 10 µM: 94%
[10]; [12]
  percent of control binding at 10 µM: 97%

## NC(=O)c1cccc2cn(-c3ccc([C@@H]4CCCNC4)cc3)nc12 [Niraparib]
[1]; [13]
  percent of control binding at 10 µM: 83%
[2]; [13]
  percent of control binding at 10 µM: 73%
[3]; [13]
  percent of control binding at 10 µM: 98%
[4]; [13]
  percent of control binding at 10 µM: 79%
[5]; [13]
  percent of control binding at 10 µM: 57%
[6]; [13]
  percent of control binding at 10 µM: 95%
[7]; [13]
  percent of control binding at 10 µM: 100%
[8]; [13]
  percent of control binding at 10 µM: 80%
[9]; [13]
  percent of control binding at 10 µM: 100%
[10]; [13]
  percent of control binding at 10 µM: 77%

## CNCc1ccc(-c2[nH]c3cc(F)cc4c3c2CCNC4=O)cc1 [Rucaparib]
[1]; [14]
  percent of control binding at 10 µM: 88%
[2]; [14]
  percent of control binding at 10 µM: 54%
[3]; [14]
  percent of control binding at 10 µM: 87%
[4]; [14]
  percent of control binding at 10 µM: 98%
[5]; [14]
  percent of control binding at 10 µM: 63%
[6]; [14]
  percent of control binding at 10 µM: 67%
[7]; [14]
  percent of control binding at 10 µM: 94%
[8]; [14]
  percent of control binding at 10 µM: 90%
[9]; [14]
  percent of control binding at 10 µM: 82%
[10]; [14]
  percent of control binding at 10 µM: 86%
